Assay results: patent US20090087845A1, “Genetic Markers Of True Low Birth Weight” (priority 2005, published 2009)
Values joined by “and” are separate entries in the source; they are usually repeats but may differ in a detail not shown here. Identical values can stand only once.

Tested on: placental gene expression
Experiment: Placental gene expression (Affymetrix Rat Genome Chip 230.2) after SSRI (fluoxetine) exposure throughout gestation
Type: in vivo
Conditions: SSRI exposure during gestation
Experimental: Gene expression data from pregnant rats under different forms of dietary restriction was gathered. […] (N=8) • Group 2 (CR50): Rats Given 50% of their Normal Daily Intake of Food. (N=5) • Group 3 (CR70): Rats Given 70% of their Normal Daily Intake of Food. […] (N=6) Placentas from the rats of each Group were harvested on Day 21 of gestation. RNA was extracted and gene expression was measured based on hybridization of RNA to Affymetrix Rat Genome Chips™ (230.2) (Affymetrix, Santa Clara, Calif.).
In order to determine whether placental gene expression profiling can be used to identify other prenatal exposures such as toxicants and drugs, a group of rats with drug exposure was monitored as described above. […] As with control, CR50, CR70, and HF groups, placentas from the mothers were sampled after 21 days of gestation and gene expression monitored utilizing an Affymetrix Rat Genome Chip.

CNCCC(Oc1ccc(C(F)(F)F)cc1)c1ccccc1 (stereo not shown) [fluoxetine, Fluoxetine]
Probeset 1367856_at expression: 9.227 and 9.529 and 9.365 and 9.385 and 9.39 and 9.762
Probeset 1367877_at expression: 10.9 and 11 and 11.21 and 11.25 and 10.7225 and 10.35
Probeset 1368083_at expression: 8.132 and 7.967 and 8.206 and 8.272 and 8.391 and 8.145
Probeset 1368824_at expression: 8.826 and 8.855 and 9.531 and 9.13 and 8.806 and 9.976
Probeset 1369754_a_at expression: 8.0392 and 8.245 and 7.92 and 7.959 and 8 and 8.033
Probeset 1369775_at expression: 8.114 and 8.469 and 8.777 and 8.329 and 7.897 and 9.185
Probeset 1370293_at expression: 5.003 and 5.146 and 4.947 and 4.866 and 4.888 and 5.155
Probeset 1370317_at expression: 8.087 and 8.102 and 8.255 and 8.308 and 8.15 and 8.491
Probeset 1370521_at expression: 8.446 and 8.335 and 8.321 and 8.443 and 8.486 and 8.352
Probeset 1370682_at expression: 5.234 and 5.326 and 5.095 and 5.171 and 5.242 and 5.482
Probeset 1370766_at expression: 4.942 and 4.938 and 5.166 and 5.489 and 5.322 and 4.712
Probeset 1370918_a_at expression: 11.31 and 11.2792 and 11.25 and 11.37 and 11.45 and 11.49
Probeset 1370983_at expression: 5.843
Probeset 1371435_at expression: 11.01 and 10.91 and 11.23 and 11.08 and 10.99 and 11.27
Probeset 1372141_at expression: 9.139 and 9.134 and 9.292 and 9.347 and 9.239 and 9.295
Probeset 1373319_at expression: 9.055 and 9.237 and 9.183 and 9.332 and 9.182 and 9.352
Probeset 1373396_at expression: 9.155 and 8.864 and 9.203 and 9.102 and 8.933 and 8.366
Probeset 1373572_at expression: 7.868 and 7.822 and 7.63 and 7.991 and 8.104 and 8.161
Probeset 1373647_at expression: 8.371 and 8.23 and 8.672 and 8.447 and 8.268 and 8.235
Probeset 1373702_at expression: 8.332 and 8.305 and 8.162 and 8.514 and 8.322 and 7.814
Probeset 1373804_at expression: 6.825 (2×) and 6.702 and 7.208 and 7.238 and 7.527
Probeset 1374112_at expression: 6.448 and 6.479 and 6.686 and 6.529 and 6.5 and 6.601
Probeset 1374739_at expression: 8.91 and 8.84 and 9.07 and 9.074 and 8.858 and 8.669
Probeset 1375178_at expression: 5.861 and 5.694 and 5.836 and 5.574 and 5.873 and 5.942
Probeset 1375407_at expression: 4.147 and 4.198 and 4.162 and 4.179 and 4.18 and 4.21
Probeset 1376294_at expression: 8.241 and 8.136 and 8.122 and 8.206 and 8.031 and 7.939
Probeset 1376622_at expression: 9.179 and 9.106 and 9.158 and 9.007 and 8.828 and 8.85
Probeset 1376661_at expression: 9.243 and 8.93 and 9.166 and 9.213 and 9.04 and 8.674
Probeset 1377210_at expression: 5.248 and 4.863 and 5.701 and 5.485 and 5.015 and 5.172
Probeset 1377365_at expression: 4.943 and 5.014 and 4.818 and 5.177 and 5.084 and 4.987
Probeset 1377621_at expression: 9.058 and 9.148 and 9.272 and 8.936 and 8.844 and 9.114
Probeset 1377746_at expression: 6.748 and 6.563 and 6.855 and 6.829 and 6.772 and 6.746
Probeset 1378200_at expression: 3.497 and 3.656 and 3.453 and 3.611 and 3.537 and 3.653
Probeset 1378318_at expression: 7.345 and 7.18 and 7.153 and 7.373 and 7.289 and 7.671
Probeset 1378906_at expression: 4.061 and 4.197 and 4.196 and 4.263 and 4.048 and 4.099
Probeset 1378992_at expression: 3.715 and 3.63 and 3.611 and 3.744 and 3.567 and 3.655
Probeset 1379691_at expression: 5.195 and 5.15 and 5.65 and 5.355 and 5.021 and 5.425
Probeset 1379822_at expression: 4.426 and 4.487 and 4.337 and 4.483 and 4.602 and 4.654
Probeset 1379827_at expression: 7.363 and 6.823 and 7.052 and 7.077 and 7.08 and 7.626
Probeset 1379963_at expression: 6.946 and 6.646 and 6.73 and 6.72 and 6.71 and 6.95
Probeset 1380175_at expression: 5.161 (2×) and 4.962 and 5.291 and 5.16 and 5.03
Probeset 1380454_at expression: 6.241 and 5.984 and 6.009 and 5.948 and 5.974 and 6.055
Probeset 1380887_at expression: 4.924
Probeset 1381074_at expression: 4.46 and 4.412
Probeset 1381130_at expression: 3.907 and 4.131 and 4.062 and 4.007 and 3.997 and 4.159
Probeset 1381286_at expression: 5.782 and 5.606 and 5.685 and 5.499 and 5.475 and 5.605
Probeset 1381456_at expression: 5.51 and 5.294 and 5.392 and 5.362 and 5.479 and 5.538
Probeset 1381492_at expression: 3.395 and 3.359 and 3.315 and 3.411 and 3.371 and 3.465
Probeset 1381950_at expression: 3.272 and 3.248 and 3.336 and 3.304 and 3.319 and 3.328
Probeset 1382156_at expression: 4.657 and 4.812 and 4.826 and 4.712 and 4.874 and 4.952
Probeset 1382513_at expression: 6.674 and 6.665 and 6.481 and 6.607 and 6.737 and 6.659
Probeset 1382670_at expression: 8.608 and 8.307 and 8.399 and 8.688 and 8.346 and 8.2197
Probeset 1383054_at expression: 8.808 and 9.017 and 9.07 and 8.991 and 8.711 and 9.326
Probeset 1383300_at expression: 8.006 and 8.007 and 8.362 and 8.2749 and 8.022 and 8.359
Probeset 1383309_at expression: 8.849 and 8.69 and 8.969 and 8.891 and 8.934 and 8.618
Probeset 1383329_at expression: 5.895 and 5.614 and 5.92 and 5.669 and 5.593 and 5.826
Probeset 1383443_at expression: 5.684 and 5.567 and 5.755 and 5.468 and 5.752 and 5.677
Probeset 1383599_at expression: 8.081 and 7.626 and 7.843 and 7.829 and 8.127 and 9.642
Probeset 1383670_at expression: 6.71 and 6.607 and 6.621 and 6.709 and 6.712 and 7.383
Probeset 1384367_at expression: 5.722 and 5.628 and 5.604 and 6.025 and 5.735 and 5.669
Probeset 1384528_at expression: 6.295 and 6.64 and 6.851 and 6.656 and 6.5 and 7.042
Probeset 1384573_at expression: 8.901 and 8.97 and 9.056 and 9.081 and 8.766 and 9.188
Probeset 1384849_at expression: 4.389 and 4.321 and 4.282 and 4.323 and 4.508 and 4.489
Probeset 1385074_at expression: 5.671 and 5.563 and 5.768 and 5.526 and 5.195 and 5.636
Probeset 1385113_at expression: 7.347 and 7.428 and 7.301 and 7.161 and 7.417 and 7.088
Probeset 1385137_at expression: 6.487 and 6.691 and 6.525 and 6.507 and 6.657 and 6.515
Probeset 1385290_at expression: 5.912 and 5.666 and 5.934 and 5.765 and 5.855 and 6.05
Probeset 1385386_at expression: 3.88 and 3.887 and 3.724 and 3.939 and 3.964 and 3.997
Probeset 1385391_at expression: 3.906
Probeset 1385676_at expression: 7.767 and 7.784 and 7.6 and 7.923 and 7.825 and 7.957
Probeset 1385790_at expression: 8.874 and 8.703 and 8.936 and 8.711 and 8.797 and 8.832
Probeset 1385967_at expression: 7.8281 and 7.604 and 7.783 and 7.853 and 7.739 and 7.587
Probeset 1386125_at expression: 6.722 and 6.815 and 6.394 and 6.647 and 6.915 and 6.555
Probeset 1387136_at expression: 6.858 and 6.879 and 6.716 and 6.836 and 6.917 and 6.91
Probeset 1387693_a_at expression: 6.346 and 5.564 and 5.898 and 6.298 and 6.19 and 6.092
Probeset 1387694_at expression: 4.568 (2×) and 4.709 and 4.717 and 4.669 and 4.592
Probeset 1387822_at expression: 6.542 and 6.446 and 6.117 and 6.626 and 6.634 and 6.309
Probeset 1387836_at expression: 6.084 and 6.195 and 5.76 and 6.333 and 6.223 and 6.427
Probeset 1387914_at expression: 7.114 and 7.095 and 6.97 and 7.203 and 7.171 and 6.743
Probeset 1388091_at expression: 4.883 and 4.896 and 4.86 and 4.66 and 4.763 and 5.101
Probeset 1388131_at expression: 5.883 and 5.853 (2×) and 5.899 and 5.7 and 5.653
Probeset 1388363_at expression: 8.334 and 8.137 and 8.387 and 8.484 and 8.155 and 8.23
Probeset 1388396_at expression: 8.583 and 8.468 and 8.633 and 8.876 and 8.642 and 8.158
Probeset 1388669_at expression: 7.593 and 7.653 and 7.716 and 7.739 and 7.557 and 7.506
Probeset 1389095_at expression: 4.796 and 4.404 and 4.732 and 4.907 and 5.027 and 4.473
Probeset 1389213_at expression: 8.131 and 8.028 and 7.745 and 7.914 and 8.246 and 8.135
Probeset 1389599_at expression: 7.15 and 6.872 and 6.834 and 7.063 and 7.294 and 6.817
Probeset 1389938_at expression: 3.471 and 3.408 and 3.488 and 3.5 and 3.516 and 3.49
Probeset 1390406_at expression: 10.34 and 10.3557 and 10.5 and 10.19 and 10.46 and 10.31
Probeset 1390477_at expression: 5.455 and 5.297 and 5.408 and 5.153 and 5.575 and 5.333
Probeset 1390592_at expression: 7.922 and 8.042 and 8.388 and 8.1 and 7.908 and 8.783
Probeset 1390603_at expression: 7.171 and 7.008 and 7.6 and 6.976 and 7.243 and 7.286
Probeset 1390649_at expression: 7.938 and 7.688 and 7.673 and 7.791 and 7.858 and 7.491
Probeset 1390892_at expression: 5.596 and 5.604 and 5.507 and 5.408 and 5.571 and 5.5082
Probeset 1391078_at expression: 8.106 and 8.271 and 8.74 and 8.604 and 8.221 and 9.079
Probeset 1391283_at expression: 5.834 and 5.874 and 5.96 and 5.702 and 5.598 and 5.898
Probeset 1391376_at expression: 7.65 and 7.982 and 7.683 and 7.518 and 7.491 and 7.602
